# Legend:
# [1] = target: T1, coagulation factor XIa protease (FXIa) (Homo sapiens, UniProt P03951); experiment: Inhibition of coagulation factor XIa (FXIa), chromogenic substrate, absorbance at 405; type: biochemical; settings: FXIa 0.05 μg/mL, substrate 2.5 mM, 37° C. 15 minutes
# T1 construct: purchased Abcam ab62411
# Method: Coagulation factor XIa protease (FXIa) decomposed the specific substrate to produce yellow p-nitroaniline (pNA), pNA had strong absorption at 405 nm. The inhibitory activity of the compounds on coagulation factor XIa was determined by assaying the absorbance of the compounds at […].
# The coagulation factor XIa protease used in the experiment was purchased from Abcam Company, Item No. ab62411; the coagulation factor XIa-specific substrate was purchased from HYPHEN BioMed, Item No. Biophen cs-21 (66); tris-HCl was purchased from Invitrogen, Item No. 15567-027; NaCl was purchased from ABCONE, Item No. S39168; Twain 20 was purchased from Amersco, Item No. 0777-1L.
# (§1) The compounds were dissolved in 100% DMSO, 20 mM, and stored at room temperature in a nitrogen cabinet.
# a. 20 mM of the tested compound was diluted to 2 mM using 100% DMSO, and the reference compound was diluted to 0.4 mM; the compound was continuously diluted with a 3-fold gradient at 10 concentration points using a Bravo liquid workstation.
# b. The ECHO liquid workstation was used to transfer 10 nL of compound to the corresponding 384-well experimental plate with double replicate wells; the final concentrations of compound reactions were 1000, 333.3, 111.1, 37.0, 12.3, 4.1, 1.37, 0.46, 0.15, and 0.05 nM. The final concentrations of reference compounds were 200, 66.7, 22.2, 7.4, 2.47, 0.82, 0.27, 0.09, 0.03, 0.01 nM.
# c. 10 nL DMSO and 10 nL 0.4 mM reference compounds were transferred to high signal control pores and low signal control pores respectively.
# d. 0.1 μg/mL FXIa enzyme solution was prepared with buffer solution, and 10 μL enzyme solution was added to 384-well experimental plate, 5 mM substrate solution was prepared using buffer solution, and […] substrate solution was added to a 384-well experimental plate. The final concentration of FXIa was 0.05 μg/mL and the final concentration of the substrate was 2.5 mM.
# e. The 384-hole experimental plate was centrifuged and incubated at 37° C. for 15 minutes.
# f. The absorbance was measured at 405 nm using EnVision.
# [2] = system: human plasma; experiment: Anticoagulant effect on human blood in vitro (APTT clotting time, CT2.0); settings: final concentration of compound corresponding to aPTT of the 2-fold blank control
# Method: Activated partial thromboplastin time (APTT) measurement reagent was mixed with plasma and the reaction was carried out continuously resulting in a change in optical density up to the clotting point, and the clotting time (CT) was measured by optical turbidimetry using a semi-automatic coagulation analyzer. The in vitro anticoagulant activity of compounds on human blood was determined by detecting the clotting time of plasma treated with different concentrations of compounds, and the corresponding concentration of compounds prolonging clotting time was calculated.
# Human plasma used in the experiment was purchased from HD Biosciences (Shanghai) Co., Ltd.; Activated partial thromboplastin time determination kit was purchased from Taizhou Zhongqin Shidi Biotechnology Co., Ltd., Item No. SS00220005.
# as §1
# a. The NaCl reagent in the kit was incubated half an hour in advance, and the APTT reagent was balanced to room temperature.
# b. The compound was continuously diluted at 14 concentration points using a Bravo liquid workstation with a 2-fold gradient.
# c. 0.75 μL of the compound was added to the measuring cup, double-replicate wells; 50 μL of plasma was added and 50 μL of APTT reagent was added, the mixture was mixed well and put into coagulation analyzer for incubation at 37° C. for 3 minutes.
# d. APTT assay was started, 50 μL of NaCl was added to start the reaction, and the clotting time was counted.
# e. Control clotting time was measured using 100% DMSO instead of the compound, and the final concentration of DMSO was 0.5%.
# Data were curve-fitted using Graphpad Prism to calculate CT2.0, the final concentration of compound corresponding to aPTT of the 2-fold blank control was calculated.
# [3] = Pharmacokinetic experiment in rats, intravenous injection and oral administration; type: in vivo; settings: male Sprague Dawley rats; for F: intragastric administration 2 mg/kg vs intravenous 1 mg/kg; for AUC(0-inf) / Cmax / half-life / clearance / Vd: rat, plasma; for Vd: read-out: Vz
# Method: In this experimental embodiment, in vivo pharmacokinetic evaluation was performed in rats by intravenous injection and oral administration.
# Experimental methods and conditions: Male Sprague Dawley rats were given the test compound 1 mg/Kg (intravenous injection, solvent 5% DMSO/10% Solutol/85% Saline) and 2 mg/Kg (intragastric administration, solvent 0.5% MC) by respectively; 5 min, 15 min, 30 min, 1 hr, 2 hr, 4 hr, 6 hr, 8 hr, 24 hr after administration, blood was collected from submandibular vein, 0.20 mL was collected from each sample , and heparin sodium was used for anticoagulation. After collection, the sample was placed on ice, and the plasma was centrifuged to be measured within 1 hour. Plasma drug concentration in plasma was detected by liquid chromatography tandem mass spectrometry (LC/MS/MS) to calculate pharmacokinetic parameters.
# [4] = po, intragastric administration 2 mg/kg
# [5] = intravenous administration 1 mg/kg
# T1 sequence (P03951 388-625 limits assumed): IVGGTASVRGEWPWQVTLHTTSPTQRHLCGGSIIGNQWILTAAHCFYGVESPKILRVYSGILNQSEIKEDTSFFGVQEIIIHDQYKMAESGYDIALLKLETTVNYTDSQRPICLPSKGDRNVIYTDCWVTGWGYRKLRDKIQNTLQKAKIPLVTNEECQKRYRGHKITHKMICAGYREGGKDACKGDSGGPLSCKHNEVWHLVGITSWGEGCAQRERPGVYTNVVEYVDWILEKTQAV
# T1 sequence (P03951 19-387 partner limits assumed): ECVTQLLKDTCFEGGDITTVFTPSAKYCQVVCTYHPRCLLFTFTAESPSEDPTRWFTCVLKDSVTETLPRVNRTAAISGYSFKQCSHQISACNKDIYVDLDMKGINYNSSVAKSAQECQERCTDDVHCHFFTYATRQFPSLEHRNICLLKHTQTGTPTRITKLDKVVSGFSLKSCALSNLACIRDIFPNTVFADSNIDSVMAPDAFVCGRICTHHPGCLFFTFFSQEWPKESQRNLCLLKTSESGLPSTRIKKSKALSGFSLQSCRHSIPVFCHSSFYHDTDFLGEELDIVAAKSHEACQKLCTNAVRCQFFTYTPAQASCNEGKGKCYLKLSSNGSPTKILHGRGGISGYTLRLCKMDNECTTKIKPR
IC50 [1] [nM],F [3] [%],"AUC(0-inf) [3, 4] [ng·h/mL]","Cmax [3, 4] [ng/mL]","half-life [3, 4] [h]","AUC(0-inf) [3, 5] [ng·h/mL]","clearance [3, 5] [mL/min/kg]","half-life [3, 5] [h]","Vd [3, 5] [L/kg]",SMILES,CT2.0 [2] [µM]
3.34,25.32,3310,709,1.63,6530,2.66,1.65,0.349,Nc1ccc(-c2nc(F)c([C@@H]3[C@H]4C[C@H]4c4cc(-c5cc(Cl)ccc5-n5cnnn5)cc(=O)n43)[nH]2)c(F)n1 [Embodiment 36],0.42
0.83,,,,,,,,,Nc1n[nH]c2cc(-c3[nH]c([C@@H]4[C@H]5C[C@H]5c5cc(-c6cc(Cl)ccc6-n6cc(C(F)F)nn6)cc(=O)n54)nc3F)ccc12 [Embodiment 83],0.82
0.31,,,,,,,,,Nc1n[nH]c2c(F)c(-c3cnc([C@@H]4[C@H]5C[C@H]5c5cc(-c6cc(Cl)ccc6-n6cnnn6)cc(=O)n54)[nH]3)ccc12 [Embodiment 86],0.20
12.5,,,,,,,,,O=C1CCc2cc(-c3cnc([C@@H]4[C@H]5C[C@H]5c5nc(-c6cc(Cl)ccc6-n6cc(Cl)nn6)cc(=O)n54)[nH]3)ccc2N1 [Embodiment 89],1.29
6.33,28.4,17600,1830,3.16,26900,0.63,3.41,0.18,O=C1CCc2c(ccc(-c3cnc([C@@H]4[C@H]5C[C@H]5c5nc(-c6cc(Cl)ccc6-n6cc(Cl)nn6)cc(=O)n54)[nH]3)c2F)N1 [Embodiment 90],0.63
3.93,,,,,,,,,O=C1CCc2c(ccc(-c3cnc([C@@H]4[C@H]5C[C@H]5c5nc(-c6cc(Cl)ccc6-n6cc(Cl)nn6)cc(=O)n54)[nH]3)c2Cl)N1 [Embodiment 91],2.27
4.24,,,,,,,,,O=C1CCc2cc(-c3[nH]c([C@@H]4[C@H]5C[C@H]5c5nc(-c6cc(Cl)ccc6-n6cc(Cl)nn6)cc(=O)n54)nc3F)ccc2N1 [Embodiment 92],0.83

# Source: patent US20220251095A1, “TRICYCLIC COMPOUND, PREPARATION METHOD THEREFOR AND USE THEREOF” (SHANGHAI JEMINCARE PHARMACEUTICALS CO., LTD., priority 2019, published 2022)
